Test results from BindingDB's records for doi:10.1021/cb500512z (University of Wisconsin-Milwaukee, 2014).

Molecular target: Genome polyprotein (Hepacivirus C, UniProt A3EZJ3)
Assay: EMSA
Details: pH 7.5; 23 °C
Experimental: Binding assays containing 25 mM MOPS pH 7.5, 1.25 mM MgCl2, 20 nM Cy5-dT15, and 200 nM NS3h_1b were incubated 5 min at RT. Following addition of indicated concentrations of ebselen, the binding reactions were incubated another 5 min at 23 C.

Genome polyprotein, sequence (A3EZJ3 whole entry): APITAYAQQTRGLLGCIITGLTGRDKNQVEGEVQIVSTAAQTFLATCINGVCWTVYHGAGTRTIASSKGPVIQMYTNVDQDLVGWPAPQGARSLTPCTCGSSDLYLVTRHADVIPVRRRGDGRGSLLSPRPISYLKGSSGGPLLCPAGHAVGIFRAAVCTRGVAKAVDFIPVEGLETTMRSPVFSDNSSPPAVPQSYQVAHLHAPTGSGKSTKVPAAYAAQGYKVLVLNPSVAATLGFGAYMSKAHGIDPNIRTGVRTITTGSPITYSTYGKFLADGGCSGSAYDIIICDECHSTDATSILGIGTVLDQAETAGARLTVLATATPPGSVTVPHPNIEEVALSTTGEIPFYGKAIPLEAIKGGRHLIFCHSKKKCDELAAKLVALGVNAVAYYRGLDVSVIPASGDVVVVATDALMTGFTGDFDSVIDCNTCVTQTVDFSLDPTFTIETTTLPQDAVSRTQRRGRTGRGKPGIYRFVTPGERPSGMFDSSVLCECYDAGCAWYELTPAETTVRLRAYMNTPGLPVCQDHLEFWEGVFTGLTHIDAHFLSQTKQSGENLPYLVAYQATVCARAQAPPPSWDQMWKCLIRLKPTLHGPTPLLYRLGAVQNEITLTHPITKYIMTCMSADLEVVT

Cc1ccccc1NC(=O)Cn1sc2ccccc2c1=O
IC50: 3.9 µM
